Reference: patent publication US20080171072A1, “OCULAR INSERTS CONTAINING APOMORPHINE” (priority 2006, published 2008)

How the values were obtained:
[1] = Autoclaving of the casting solution; format: physicochemical; settings: preliminary trial
canine patients [2] = settings: intravenous route
Text: On the report forms supplied with the product, if any of these occurred the clinicians were asked to grade them on a subjective scale of 1 to 5 with a score of 1 being mild and 5 being severe. The clinicians were also asked to rate the ease of use of the inserts for each case with a score of 5 being very easy to use and 1 being very difficult.

canine patients [3] = system: canine patients
[4] = subjective scale, 5 severe, Median (25%-75%)

Compound: CN1CCc2cccc3c2[C@H]1Cc1ccc(O)c(O)c1-3 [apomorphine]
- stability under conditions required for autoclaving [1]: unstable

Compound: CN1CCc2cccc3c2[C@H]1Cc1ccc(O)c(O)c1-3.Cl [intravenous apomorphine, apomorphine HCI]
- Prolonged vomiting, Frequency (%) (canine patients [2]; n = 32): 3.1%
- Sedation, Frequency (%) (canine patients [2]; n = 32): 43.8%
- Tachycardia, Frequency (%) (canine patients [2]; n = 32): 15.6%
- Prolonged vomiting, Score (canine patients [2]; [4]): 3 (3-3)
- Sedation, Score (canine patients [2]; [4]): 2 (1-2)
- Tachycardia, Score (canine patients [2]; [4]): 2 (2-3)
- % of Patients, Success (canine patients [3]; intravenous 0.03-0.04 mg kg-1, emesis within 15 minutes, n 32): 90.6%
- Time to emesis (canine patients [3]; intravenous 0.03-0.04 mg kg-1, median, n 32 (Success 29)): 1.0 min
- % of Patients, Failure (canine patients [3]; intravenous 0.03-0.04 mg kg-1, n 32): 9.4%
- % of patients showing no emesis at all (canine patients [3]; intravenous route, n 32): 9.4%
